From patent US20020025296A1, “Combined use of nucleoside analogues and gene transfection for tissue imaging and therapy” (priority 1994, published 2002)
Blank lines part the entries; values can stand above or below the compound they belong to.

Legend:
[1] = Partition coefficients (log P), n-octanol/water, modified shake-flask technique with UV quantitation; format: physicochemical; conditions: n-octanol and water (1:1, v/v)
Description: Partition coefficients (log P) were measured by determining the distribution of the test compound between a presaturated mixture of n-octanol and water (1:1, v/v). The analytical method consisted of a modified shake-flask technique and ultraviolet (UV) spectrometry quantitation after centrifugal separation of the two phases. The concentration of the test compound in the octanol phase prior to distribution was 0.5 mM. The dihydropyridine chromophore (λmax=360 nm) was used for quantitative UV analysis of IVDU-CDS and IVFRU-CDS, for which the results are shown in Table 1.

[2] = Stability of the preferred compounds; conditions: comparison among preferred compounds
[3] = Pseudo-first order oxidation of the 1-methyl-1,4-dihydropyridine-CDS in mouse blood, brain homogenate and liver homogenate; format: in vitro ADME; conditions: 37° C.; for k, oxidation rate, brain / t1/2, oxidation, brain: 20% mouse brain homogenate; for k, oxidation rate, blood / t1/2, oxidation, blood: 50% mouse blood
Description: Pseudo-first order rate constants and half-lives for the oxidation of IVDU-CDS and IVFRU-CDS were determined in 50% mouse blood, 20% mouse brain homogenate and 20% mouse liver homogenate. A solution of the test compound in DMSO (10 Mm) was added to each matrix and incubated at 37° C. At various times after test compound addition, an aliquot was removed and added to acetonitrile (100 μL). The samples were immediately centrifuged and the supernatant was analyzed by quantitative reverse phase HPLC. The rate of disappearance of the 1-methyl-1,4-dihydropyridine-CDS was determined by UV detection at 360 nm.

[4] = tested on: KBALB-STK cells that express HSV-1 TK; assay: In vitro cellular uptake of radiopharmaceuticals in transduced or non-transduced sarcoma cell lines; format: cell-based; conditions: KBALB-STK cells relative to KBALB or KBALB-LNL cells, 37° C.
Description: The KBALB sarcoma models used in these studies are derived by exposing wild-type KBALB cells to Moloney murine leukemia virus (MMLV) producer cell supernatants containing replication incompetent ecotropic retroviruses. […] These transduced cell lines are cultured in media containing the antibiotic G-418 to select for those cells expressing the neomycin resistance gene.
KBALB-STK, KBALB-LNL, or wild type KBALB cells were grown to confluency in 24 well culture plates. [^125I]-IVDU (sp. act.=12 Gbq/mmol), [^125I]-1VFRU (sp. act.=11 Gbq/mmol), [^131′I]-IVDU-CDS (sp. act.=2.8 Gbq/mmol) or [^131I]-IVFRU-CDS (sp. act.=4.3 Gbq/mmol) were added to each well in 100 μL saline solution and incubated at 37° C. At varying times after exposure to the test compound, the supernatant was removed, the cells rinsed with saline, and the adherent cells were then trypsinized prior to their removal. Cellular uptake -was determined by gamma counting using a Beckmann 8000 gamma counter.

[5] = tested on: KBALB-STK tumors; assay: Biodistribution in mice bearing KBALB-STK tumors; format: in vivo
Description: (§1) KBALB or KBALB-STK cells (1×10^5 cells) were injected subcutaneously into the flank of male Balb-c mice. Palpable tumors appeared 14 days after injection. [^131I]-IVFRU (370 KBq, sp. act. 59 Gbq/mmol) was injected via the tail vein into each tumor bearing animal. Three animals were sacrificed and dissected at each time interval. The radioactivity uptake by selected tissues of interest were determined using a Beckman 8000 gamma counter. Tissue uptake is expressed as a percentage of the administered dose per gram of tissue versus time in FIGS. 3 and 4. The tumor to blood ratio is presented for both tumor models in FIG. 5.

[6] = tested on: KBALB-STK tumors expressing HSV-1 TK; assay: Scintigraphic imaging of KBALB-STK tumors; format: in vivo, mice; conditions: 8 hours after administration
Description: (§2) BALB-STK cells (1×10^5 cells) were injected subcutaneously into the flank of 12 Balb-c mice. All inoculated animals developed palpable tumors suitable for imaging after 14 days at which time the tumors were approximately 10 mm in diameter. Static images were obtained following injection of 3.7 Mbq of [^131I]-VFRU (sp. act.=252 Gbq/mmol) via the tail vein. Animals were placed in the prone position under a pinhole collimator using a Searle gamma camera (Scintiview) with data manipulated on an ADAC computer (DPS 3300). Images were acquired over 15 minutes using a 256×256 matrix. After initial imaging, a group of animals (n=6) were administered an intraparietoneal (ip) injection of ganciclovir (100 mg/kg) once daily for seven consecutive days. The control group (n=6) received daily saline injections. After four days, the animals were administered [^131I]-IVFRU as described previously and imaging was performed using the same acquisition protocol described above. It was noted that the treatment group tumor size had shrunk to an average size of less than 5 mm. […] The tumors in the saline administered control animals continued to grow until termination of the experiment. […] The scintigram, presented as FIG. 7, is for the same animal 8 hours after [^131I]-IVFRU administration following 4 days of ganciclovir treatment.

[7] = tested on: KBALB tumors; assay: Biodistribution in mice bearing wild type KBALB tumors; format: in vivo; conditions: relative to KBALB-STK tumors
Description: as §1

[8] = biological target: HSV-1 TK (Human herpesvirus 1, UniProt P0DTH5); assay: Substrate property for the gene expression product HSV-1 TK; format: biochemical, herpes simplex virus type 1
[9] = tested on: KBALB-STK tumors; assay: Ganciclovir treatment of mice bearing KBALB-STK tumors; format: in vivo; conditions: 100 mg/kg ip once daily
Description: as §2

HSV-1 TK, sequence (P0DTH5 whole entry): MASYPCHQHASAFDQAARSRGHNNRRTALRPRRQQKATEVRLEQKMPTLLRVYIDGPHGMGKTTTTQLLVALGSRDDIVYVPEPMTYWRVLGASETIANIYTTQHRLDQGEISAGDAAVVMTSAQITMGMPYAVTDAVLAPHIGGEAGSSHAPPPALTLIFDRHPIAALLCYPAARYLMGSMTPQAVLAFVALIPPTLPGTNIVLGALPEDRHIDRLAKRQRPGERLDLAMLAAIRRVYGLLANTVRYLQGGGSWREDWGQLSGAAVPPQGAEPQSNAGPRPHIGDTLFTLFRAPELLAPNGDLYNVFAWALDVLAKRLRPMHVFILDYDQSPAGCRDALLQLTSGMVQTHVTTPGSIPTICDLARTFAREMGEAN

SMILES: O=c1[nH]c(=O)n([C@H]2C[C@H](O)[C@@H](CO)O2)cc1/C=C/I [IVDU, (E)-5-(2-iodovinyl)-2′-deoxyuridine]
logP [1]: 1.1 | stability [2]: less stable than IVFRU, IVFAU and IVAU

log P [1]: 1.77 | k, oxidation rate, brain [3]: 0.00961 min⁻¹ | t1/2, oxidation, brain [3]: 1.2 h | k, oxidation rate, liver ([3]; 20% mouse liver homogenate): 0.01081 min⁻¹ | k, oxidation rate, blood [3]: 0.00522 min⁻¹ | t1/2, oxidation, blood [3]: 2.22 h | stability [2]: more stable
SMILES: CN1C=CCC(C(=O)O[C@H]2C[C@H](n3cc(/C=C/I)c(=O)[nH]c3=O)O[C@@H]2CO)=C1 [IVDU-CDS, (E)-5-(2-iodovinyl)-3′-O-(1-methyl-1,4-dihydropyridyl-3-carbonyl)-2′-deoxyuridine]

SMILES: O=c1[nH]c(=O)n([C@@H]2O[C@H](CO)[C@@H](O)[C@H]2F)cc1/C=C/I [IVFRU, (E)-5-(2-iodovinyl)-2′-fluoro-2′-deoxyuridine]
logP [1]: 1.21

log P [1]: 1.83 | k, oxidation rate, brain [3]: 0.0031 min⁻¹ | t1/2, oxidation, brain [3]: 3.72 h | k, oxidation rate, liver ([3]; 20% mouse liver homogenate): 0.00531 min⁻¹ | t1/2, oxidation, liver ([3]; 20% mouse liver homogenate): 2.17 h | k, oxidation rate, blood [3]: 0.0027 min⁻¹ | t1/2, oxidation, blood [3]: 4.27 h
SMILES: CN1C=CCC(C(=O)O[C@H]2[C@@H](F)[C@H](n3cc(/C=C/I)c(=O)[nH]c3=O)O[C@@H]2CO)=C1 [IVFRU-CDS, (E)-5-(2-iodovinyl)-3′-O-(1-methyl-1,4-dihydropyridyl-3-carbonyl)-2′-fluoro-2′-deoxyuridine]

SMILES: O=c1[nH]c(=O)n([C@@H]2O[C@H](CO)[C@@H](O)[C@@H]2F)cc1C=C[125I] [[^125I]-IVFRU]
cellular uptake [4]: selective uptake

SMILES: O=c1[nH]c(=O)n([C@H]2C[C@H](O)[C@@H](CO)O2)cc1C=C[125I] [[^125I]-VDU]
cellular uptake [4]: selective uptake

SMILES: O=c1[nH]c(=O)n(C2OC(CO)C(O)C2F)cc1/C=C/[131I] (stereo not shown) [[^131I]-IVFRU, [^131I]-(E)-5-(2-iodovinyl)-2′-fluoro-2′-deoxyuridine]
peak tumor/blood ratio ([5]; KBALB-STK tumors, 8 hours post injection, tail vein): approximately 3 | tumor uptake ([5]; tumors expressing HSV-1 TK): Preferential tumor uptake | activity in region of the shrinking tumor remnant (scintigram) ([6]; following 4 days of ganciclovir treatment): relatively devoid of activity | uptake into tumor (scintigram) ([6]; prior to ganciclovir treatment): selective uptake | tumor/blood ratios ([7]; all time points): much lower | tumor radioactivity [7]: significantly less

SMILES: O=c1[nH]c(=O)n([C@@H]2O[C@H](CO)[C@@H](O)[C@H]2F)cc1/C=C/[123I] [^123I-IVFRU]
substrate for HSV-1 TK [8]: substrate

SMILES: Nc1nc(O)c2ncn(COC(CO)CO)c2n1 [ganciclovir]
tumor response ([9]; after 7 days of treatment, all treated animals): completely regressed | average tumor size ([9]; after four days, tumors approximately 10 mm at start): less than 5 mm
